Literature values in US20220175758A1, “COMPOSITIONS AND METHODS TO TREAT NON-ALCOHOLIC FATTY LIVER DISEASES (NAFLD)” (Coherus Biosciences, Inc., priority 2019, published 2022).

Conditions: monotherapy

In the case of `Cc1cc(F)c(C(=O)Nc2cccc(-c3nncn3C(C)C)n2)cc1-n1cnc(C2CC2)c1` [selonsertib], the “primary endpoint of the STELLAR-4 phase 3 clinical trial” value is given as “failed to meet the primary endpoint”.
